Laboratory results from paper PMC6321014, “Effects of Toona sinensis Leaf Extract and Its Chemical Constituents on Xanthine Oxidase Activity and Serum Uric Acid Levels in Potassium Oxonate-Induced Hyperuricemic Rats” (Molecules, 2018).
Where “and” joins values, the source holds several entries; their conditions need not be identical. Equal entries are not always repeated. Entries after “also recorded” stand apart in the source; their conditions may differ. Where two headings read alike, the source gives them in different places. Blank lines part the entries; values can stand above or below the molecule they belong to.

Assays:
[1] = system: potassium oxonate-induced hyperuricemic rats; assay: Serum uric acid levels in potassium oxonate (PO)-induced hyperuricemic rats; format: in vivo, rat (male Sprague-Dawley); settings: for effect on serum uric acid levels (in words): 40 mg/kg, PO-induced hyperuricemic rats
Procedure: Male Sprague–Dawley rats (7 weeks old) were purchased from Orient Bio (Seongmam, Korea) and were housed at a temperature of 22 ± 1 °C with 50 ± 10% humidity under a 12 h light/dark cycle with free access to a laboratory diet and water. The experimental design was approved by the Committee on Animal Care of the Korea Institute of Oriental Medicine, and all experiments were performed in accordance with committee guidelines. The uricase inhibitor PO was administered to induce hyperuricemia. The rats were divided into the following five groups (n = 6/group): (1) Normal control group; […] (3) PO + 300 mg/kg TSE group; […] Blood samples were collected via cardiac puncture under anesthesia 2 h after oral treatment. Serum was obtained by centrifugation of blood at 3000× g for 10 min at 4 °C. The separated serum was stored at −80 °C until analysis. Serum uric acid levels were determined by an enzymatic-colorimetric method using a commercial assay kit (Biovision, Milpitas, CA, USA) according to the manufacturer’s protocol.

[2] = target: T1, xanthine oxidase (XO) enzyme (bovine milk) (Bos taurus, UniProt P80457); assay: In vitro xanthine oxidase (XO) assay, uric acid formation at 295 nm with xanthine as substrate; format: biochemical; settings: for Xanthine Oxidase Kinetic Mode: Lineweaver-Burk and Dixon plots; for inhibition at 100 µM: read-out: Xanthine Oxidase Inhibition %; for IC50: repeated three times
T1 construct: 20 µL of 0.2 unit XO enzyme (bovine milk) in buffer; from tissue; host or cells: bovine milk
Procedure: We subsequently analyzed the type of inhibition using both Lineweaver–Burk (Figure 2C) and Dixon (Figure 2D) plots.
XO activity was assayed spectrophotometrically on a Spectra Max M2 microplate reader, using published experimental procedures, with slight modifications. First, 135 µL of 100 mM sodium pyrophosphate buffer (HCl, pH 7.5), 20 µL of 0.2 unit XO enzyme (bovine milk) in buffer, and 5 µL of sample (test extract or compound) in DMSO were mixed at 37 °C. The reaction was started by adding 40 µL of substrate (0.5 mM xanthine) in buffer to the mixture. The reaction mixture (200 µL) was incubated at 37 °C in a 300 µL well plate, and the UV absorbance was determined at 295 nm.

[3] = target: T1, xanthine oxidase (XO) enzyme (bovine milk); settings: cited from earlier work; for XO inhibitory effect (in words): literature statement, ref 23 (Cos et al.)
[4] = isolated compounds and controls, read-out: Xanthine Oxidase IC50
[5] = sample concentration 100 µM for each compound

T1 sequence (P80457 whole entry): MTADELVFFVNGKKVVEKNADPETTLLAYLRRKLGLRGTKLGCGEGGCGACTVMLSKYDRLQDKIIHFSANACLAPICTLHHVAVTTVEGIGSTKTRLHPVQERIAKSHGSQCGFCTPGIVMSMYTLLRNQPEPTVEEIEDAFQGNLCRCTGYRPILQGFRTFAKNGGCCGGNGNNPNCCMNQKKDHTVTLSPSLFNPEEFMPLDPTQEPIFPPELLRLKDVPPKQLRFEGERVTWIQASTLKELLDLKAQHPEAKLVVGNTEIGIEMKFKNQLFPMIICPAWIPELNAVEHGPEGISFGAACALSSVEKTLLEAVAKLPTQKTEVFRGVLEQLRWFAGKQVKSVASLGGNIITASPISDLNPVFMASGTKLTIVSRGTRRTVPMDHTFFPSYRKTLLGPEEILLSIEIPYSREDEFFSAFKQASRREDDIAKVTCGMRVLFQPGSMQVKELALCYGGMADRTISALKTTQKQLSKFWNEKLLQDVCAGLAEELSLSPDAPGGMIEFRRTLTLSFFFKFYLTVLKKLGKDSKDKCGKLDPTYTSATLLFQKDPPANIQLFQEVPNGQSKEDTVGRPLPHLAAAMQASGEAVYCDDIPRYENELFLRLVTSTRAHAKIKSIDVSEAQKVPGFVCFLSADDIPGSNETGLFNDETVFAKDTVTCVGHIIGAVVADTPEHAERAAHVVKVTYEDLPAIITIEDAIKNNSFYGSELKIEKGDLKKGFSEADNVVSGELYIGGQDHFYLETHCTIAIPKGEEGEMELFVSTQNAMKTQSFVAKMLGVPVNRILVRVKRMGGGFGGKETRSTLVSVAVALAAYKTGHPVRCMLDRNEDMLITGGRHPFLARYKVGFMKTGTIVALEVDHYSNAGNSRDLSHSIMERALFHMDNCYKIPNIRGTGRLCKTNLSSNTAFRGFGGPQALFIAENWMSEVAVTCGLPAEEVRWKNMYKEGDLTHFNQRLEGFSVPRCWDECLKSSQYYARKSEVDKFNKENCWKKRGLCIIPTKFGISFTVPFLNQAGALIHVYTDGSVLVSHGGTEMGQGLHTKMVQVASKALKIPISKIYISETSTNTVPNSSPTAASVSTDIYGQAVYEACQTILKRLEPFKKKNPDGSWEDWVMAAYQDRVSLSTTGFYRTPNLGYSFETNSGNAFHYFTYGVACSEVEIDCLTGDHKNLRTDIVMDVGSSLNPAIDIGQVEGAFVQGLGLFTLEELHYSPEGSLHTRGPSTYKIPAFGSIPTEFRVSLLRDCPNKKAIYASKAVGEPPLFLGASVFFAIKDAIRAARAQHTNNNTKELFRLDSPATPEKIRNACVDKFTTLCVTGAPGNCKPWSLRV

Structure (SMILES): Oc1ncnc2[nH]ncc12 [Allopurinol, allopurinol, reference compound]
decrease in serum uric acid level ([1]; 10 mg/kg oral gavage, positive control, rats): 43.5%
Xanthine Oxidase Kinetic Mode [2]: Competitive
inhibition at 100 µM [2]: > 98%

Structure (SMILES): C[C@@H]1O[C@@H](OC[C@H]2O[C@@H](Oc3c(-c4ccc(O)c(O)c4)oc4cc(O)cc(O)c4c3=O)[C@H](O)[C@@H](O)[C@@H]2O)[C@H](O)[C@H](O)[C@H]1O [Compound 1, quercetin-3-O-rutinoside]
IC50 [2, 4]: > 100 µM
inhibition at 100 µM [2, 5]: 42.9 ± 1.4%

Structure (SMILES): O=c1c(O[C@@H]2O[C@H](CO)[C@@H](O)[C@H](O)[C@H]2O)c(-c2ccc(O)c(O)c2)oc2cc(O)cc(O)c12 [Compound 2, quercetin-3-O-β-D-glucopyranoside]
IC50 [2, 4]: > 100 µM
inhibition at 100 µM [2, 5]: 47.8 ± 1.1%

Ki ([2]; Dixon plots, substrate 50, 100, 200 µM, read-out: Xanthine Oxidase Ki (inhibition constant)): 3.1 µM
Xanthine Oxidase Kinetic Mode [2]: noncompetitive inhibitor
reversibility of XO inhibition ([2]; compound 0-12.5 μM versus XO 0-0.2 unit/mL): reversible XO inhibitor
IC50 [2, 4]: 2.8 µM and 2.79 µM
inhibition at 100 µM [2, 5]: 96.4 ± 0.7%
Structure (SMILES): O=C(OC[C@H]1O[C@@H](OC(=O)c2cc(O)c(O)c(O)c2)[C@H](OC(=O)c2cc(O)c(O)c(O)c2)[C@@H](OC(=O)c2cc(O)c(O)c(O)c2)[C@@H]1OC(=O)c1cc(O)c(O)c(O)c1)c1cc(O)c(O)c(O)c1 [Compound 3, 1,2,3,4,6-penta-O-galloyl-β-D-glucopyranose]
reduction in serum uric acid levels compared to the PO group ([1]; 40 mg/kg oral gavage 1 h after PO, blood 2 h after treatment, rats): 20.7%
effect on serum uric acid levels (in words) [1]: significantly decreased serum uric acid levels; also recorded: lowered serum uric acid levels

Structure (SMILES): CC1OC(Oc2c(-c3ccc(O)c(O)c3)oc3cc(O)cc(O)c3c2=O)C(O)C(O)C1O [Compound 4, quercetin-3-O-α-L-rhamnopyranoside]
effect on serum uric acid levels (in words) [1]: no effect
IC50 ([2]; Xanthine Oxidase IC50, isolated compounds and controls): > 100 µM
inhibition at 100 µM [2]: 38.9 ± 1.9%

IC50 [2, 4]: 28.4 ± 0.5 µM
inhibition at 100 µM [2, 5]: 87.6 ± 0.9%
Structure (SMILES): O=c1[nH]c(=O)c2c[nH]nc2[nH]1 [Oxypurinol, oxypurinol, reference compound]
XO inhibitory activity compared to allopurinol (in words) ([3]; XO screening, ref 25 (Tamta et al.)): much lower inhibitory activity than allopurinol

Structure (SMILES): O=c1c(O)c(-c2ccc(O)cc2)oc2cc(O)cc(O)c12 [kaempferol]
XO inhibitory effect (in words) [3]: strong XO inhibitory effects

Structure (SMILES): O=c1c(O)c(-c2ccc(O)c(O)c2)oc2cc(O)cc(O)c12 [quercetin]
XO inhibitory effect (in words) [3]: strong XO inhibitory effects
